Literature values as cited in patent US20100278900A1, “CHLORINE DIOXIDE BASED GUM AND CANDY” (BASF Corporation, priority 2009, published 2010).

Conditions: in the absence of traditional abrasives

[O][Cl+][O-] [chlorine dioxide]
polishing effect: polishing effect
